Measurements as given in US20190218226A1, “PRODRUGS OF ANTICANCER AGENTS INDOTECAN AND INDIMITECAN” (Purdue Research Foundation, priority 2016, published 2019).
Read-outs that look alike come from different tables or passages of the source.

What was measured:
[1] = tested on: HOP-62; experiment: NCI60 antiproliferative screen, lung HOP-62; type: cell-based, human; details: HOP-62, 48 h, sulforhodamine B, read-out: Cytotoxicity (GI50) lung HOP-62
Procedure: (§1) All of the indenoisoquinolines were tested for antiproliferative activity in the National Cancer Institute's 60 cell line screen (NCI60). The cells were incubated with the tested compounds at 100, 10, 1, 0.1, and 0.01 μM concentrations for 48 h before treatment with sulforhodamine B dye. Optical densities were recorded, and their ratios relative to that of the control were plotted as percentage growth against the log 10 of the tested compound concentrations. The concentration that corresponds to 50% growth inhibition (GI50) is calculated by interpolation between the points located above and below the 50% percentage growth. The mean-graph midpoint (MGM) is an estimated average of the GI50 values derived from the NCI collection of 60 human cancer cell lines, where during the MGM calculation, anticancer agents with GI50 values that are outside the testing range of 0.01-100 μM are arbitrarily assigned the values of 0.01 and 100 μM, respectively. […] Also, the GI50 values of many of the substances vs. individual human cancer cell lines are below the lowest concentration used (0.01 μM) in the standard NCI testing protocol. […] For example, the MGM cytotoxicity values of 9, 15-17, and 19 are all very close to each other, but the Top1 inhibitory activities range from +++(+) to 0.

[2] = tested on: HCT-116; experiment: NCI60 antiproliferative screen, colon HCT-116; type: cell-based, human; details: HCT-116, 48 h, sulforhodamine B, read-out: Cytotoxicity (GI50) Colon HCT-116
Procedure: as §1

[3] = tested on: SF-539; experiment: NCI60 antiproliferative screen, CNS SF-539; type: cell-based, human; details: SF-539, 48 h, sulforhodamine B, read-out: Cytotoxicity (GI50) CNS SF-539
Procedure: as §1

[4] = tested on: UACC-62; experiment: NCI60 antiproliferative screen, melanoma UACC-62; type: cell-based, human; details: UACC-62, 48 h, sulforhodamine B, read-out: Cytotoxicity (GI50) melanoma UACC-62
Procedure: as §1

[5] = tested on: OVCAR-3; experiment: NCI60 antiproliferative screen, ovarian OVCAR-3; type: cell-based, human; details: OVCAR-3, 48 h, sulforhodamine B, read-out: Cytotoxicity (GI50) Ovarian OVCAR-3
Procedure: as §1

[6] = tested on: SN12C; experiment: NCI60 antiproliferative screen, renal SN12C; type: cell-based, human; details: 48 h, sulforhodamine B, read-out: Cytotoxicity (GI50) renal SN12C
Procedure: as §1

[7] = tested on: DU-145; experiment: NCI60 antiproliferative screen, prostate DU-145; type: cell-based, human; details: DU-145, 48 h, sulforhodamine B, read-out: Cytotoxicity (GI50) prostate DU-145
Procedure: as §1

[8] = tested on: MCF-7; experiment: NCI60 antiproliferative screen, breast MCF-7; type: cell-based, human; details: MCF-7, 48 h, sulforhodamine B, read-out: Cytotoxicity (GI50) breast MCF-7
Procedure: as §1

[9] = tested on: all human cancer cell lines successfully tested (NCI60); experiment: NCI60 mean graph midpoint for growth inhibition; type: cell-based
Procedure: as §1

[10] = biological target: T1, Human recombinant Top1 (Homo sapiens, UniProt P11387); experiment: Top1-mediated DNA cleavage assay; type: biochemical; set-up: key to Top1 inhibitory activity (level): 0, no detectable activity; +, weak activity; ++, similar activity to compound 4; +++, greater activity than 4; ++++, equipotent with 1; ++(+) would be between ++ and +++; key to Top 1 Cleavage: 0, no inhibitory activity; +, between 20 and 50% activities; ++, between 50 and 75% activity; +++, between 75 and 95% activity; ++++, equipotent; details: for Top 1 Cleavage: graded relative to 1 μM camptothecin; for Top1 inhibitory activity (level): scored relative to compounds 1 and 4
T1 construct: made in house
T1 sequence (P11387 1-765): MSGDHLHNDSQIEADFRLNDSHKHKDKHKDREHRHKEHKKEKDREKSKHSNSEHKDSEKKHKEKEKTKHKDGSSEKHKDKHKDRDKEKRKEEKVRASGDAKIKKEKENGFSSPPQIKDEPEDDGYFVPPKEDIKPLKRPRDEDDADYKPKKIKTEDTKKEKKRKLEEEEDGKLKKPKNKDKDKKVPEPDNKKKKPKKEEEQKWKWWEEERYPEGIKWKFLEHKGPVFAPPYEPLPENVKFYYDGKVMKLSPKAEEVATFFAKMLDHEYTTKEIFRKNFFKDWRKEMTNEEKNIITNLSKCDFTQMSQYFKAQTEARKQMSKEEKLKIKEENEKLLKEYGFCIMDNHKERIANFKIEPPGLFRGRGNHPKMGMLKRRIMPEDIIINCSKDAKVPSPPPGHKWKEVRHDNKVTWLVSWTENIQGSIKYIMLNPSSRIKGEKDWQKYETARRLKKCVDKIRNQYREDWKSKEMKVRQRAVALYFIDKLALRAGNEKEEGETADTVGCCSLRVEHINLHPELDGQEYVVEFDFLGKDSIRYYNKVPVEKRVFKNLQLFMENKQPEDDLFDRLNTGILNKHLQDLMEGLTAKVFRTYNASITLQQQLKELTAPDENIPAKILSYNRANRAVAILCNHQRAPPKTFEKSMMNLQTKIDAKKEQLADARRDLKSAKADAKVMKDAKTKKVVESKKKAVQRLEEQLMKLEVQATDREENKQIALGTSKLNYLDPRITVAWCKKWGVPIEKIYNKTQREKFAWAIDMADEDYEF
Procedure: All of the new indenoisoquinoline derivatives were tested in Top1-mediated DNA cleavage assays. For this purpose, a ^32P 3′-end labeled 117-bp DNA fragment was incubated with Top1 at four concentrations of a tested compound. The DNA fragments were separated on 20% PAGE denaturing gels. The Top1 inhibitory activities were assigned on the basis of the visual inspection of the number and intensities of the gel bands corresponding to Top1-mediated DNA cleavage fragments and scored relative to the Top1 inhibitory activity of compounds 1 and 4. Results are expressed in semiquantitative fashion: 0, no detectable activity; +, weak activity; ++, similar activity to compound 4; +++, greater activity than 4; ++++, equipotent with 1. Ambiguous scores (e.g., between two values) are designated with parentheses (e.g., ++(+) would be between ++ and +++). […] After conversion of the hydroxyl to a dimethylcarbamate, the observed Top1 inhibitory activity increased from ++(+) for compound 8 to +++ for compound 10. Introduction of an acetyl group at the 0-2 position yielded compound 11, which was also a Top1 poison with activity at the ++ level. Subsequently, several hydrophobic substituents were attached to the 0-2 position.
Topoisomerase I-Mediated DNA Cleavage Reactions.
Human recombinant Top1 was purified from baculovirus as previously described (Morrell, A., et al., J. Med. Chem. 2007, 50, 2040-2048). DNA cleavage reactions were prepared as previously reported with the exception of the DNA substrate (Strumberg, D., et al., J. Med. Chem. 1999, 42, 446-457). Briefly, a 117-bp DNA oligonucleotide (Integrated DNA Technologies) encompassing the previously identified Top1 cleavage sites in the 161-bp fragment from pBluescript SK(−) phagemid DNA was employed. This 117-bp oligonucleotide contains a single 5′-cytosine overhang, which was 3′-end-labeled by fill-in reaction with [α-^32P]dGTP in React 2 buffer (50 mM Tris-HCl, pH 8.0, […], 50 mM NaCl) with 0.5 unit of DNA polymerase I (Klenow fragment, New England BioLabs). Unincorporated [^32P]dGTP was removed using mini Quick Spin DNA columns (Roche, Indianapolis, Ind.), and the eluate containing the 3′-end-labeled DNA substrate was collected. Approximately 2 nM radiolabeled DNA substrate was incubated with recombinant Top1 in 20 μL of reaction buffer [10 mM Tris-HCl (pH 7.5), 50 mM KCl, 5 mM MgCl2, 0.1 mM EDTA, and 15 μg/mL BSA] at 25° C. for 20 min in the presence of various concentrations of compounds. The reactions were terminated by adding SDS (0.5% final concentration) followed by the addition of two volumes of loading dye (80% formamide, 10 mM sodium hydroxide, 1 mM sodium EDTA, 0.1% xylene cyanol, and 0.1% bromophenol blue). Aliquots of each reaction mixture were subjected to 20% denaturing PAGE. Gels were dried and visualized by using a phosphoimager and ImageQuant software (Molecular Dynamics). For simplicity, cleavage sites were numbered as previously described in the 161-bp fragment.

[11] = all human cancer cell lines successfully tested, ± standard error, read-out: MGM (mean graph midpoint for growth inhibition)

SMILES | Top 1 Cleavage [10] | Top1 inhibitory activity (level) [10] | melting point | GI50 ([1]; Homo sapiens) | GI50 ([2]; Homo sapiens) | GI50 ([3]; Homo sapiens) | GI50 ([4]; Homo sapiens) | GI50 ([5]; Homo sapiens) | GI50 ([6]; Homo sapiens) | GI50 ([7]; Homo sapiens) | GI50 ([8]; Homo sapiens, MCF7) | mean GI50 across NCI60 cell lines (MGM) [9, 11] | GI50 [1] | GI50 [2] | GI50 [3] | GI50 [4] | GI50 [5] | GI50 [6] | GI50 [7] | GI50 [8] | also measured
COc1cc2c(=O)n(CCCN3CCOCC3)c3c(c2cc1OC(=O)c1cccnc1)C(=O)c1cc2c(cc1-3)OCO2 [Compound 14, 3-Methoxy-6-(3-morpholinopropyl)-5,12-dioxo-6,12-dihydro-5H-[1,3]dioxolo[4′,5′:5,6]indeno[1,2-c]isoquinolin-2-yl Nicotinate] | +++ (+++, between 75 and 95% activity) | +++ | 277 to 279 °C (dec.) | 12 nM | 30 nM | < 10 nM | 22 nM | 295 nM | < 10 nM | 13 nM | < 10 nM | 158 ± 65 nM | – | – | – | – | – | – | – | – | mean GI50 across NCI60 cell lines (MGM) ([9]; Homo sapiens, NCI60, read-out: MGM value): 158 ± 65 nM; Top1 inhibitory activity (in words) [10]: slight improvement in Top1 inhibitory activity
COc1cc2c3c(n(CCCN4CCOCC4)c(=O)c2cc1OC(=O)N(C)C)-c1cc2c(cc1C3=O)OCO2 [Compound 15, 2-Methoxy-6-(3-morpholinopropyl)-5,12-dioxo-6,12-dihydro-5H-[1,3]dioxolo[4′,5′:5,6]indeno[1,2-c]isoquinolin-3-yl Dimethylcarbamate] | – | – | 290 to 292 °C | 32 nM | 26 nM | 21 nM | 17 nM | 105 nM | 25 nM | 32 nM | < 10 nM | 70 ± 28 nM | – | – | – | – | – | – | – | – | –
COc1cc2c(=O)n(CCCN3CCOCC3)c3c(c2cc1OC(C)=O)C(=O)c1cc2c(cc1-3)OCO2 [Compound 11, 3-Methoxy-6-(3-morpholinopropyl)-5,12-dioxo-6,12-dihydro-5H-[1,3]dioxolo[4′,5′:5,6]indeno[1,2-c]isoquinolin-2-yl Acetate] | ++ (++, between 50 and 75% activity) | ++ | – | – | – | – | – | – | – | – | – | 43 ± 19 nM | 18 nM | 29 nM | < 10 nM | 18 nM | 138 nM | < 10 nM | < 10 nM | < 10 nM | cytotoxicity relative to parent compound (in words) ([9]; NCI60): greater than the parent 8 by a factor of almost one order of magnitude

Now from value to molecule, other results behind:

Top 1 Cleavage [10] | Top1 inhibitory activity (level) [10] | melting point | SMILES | GI50 ([1]; Homo sapiens) | GI50 ([2]; Homo sapiens) | GI50 ([3]; Homo sapiens) | GI50 ([4]; Homo sapiens) | GI50 ([5]; Homo sapiens) | GI50 ([6]; Homo sapiens) | GI50 ([7]; Homo sapiens) | GI50 ([8]; Homo sapiens, MCF7) | mean GI50 across NCI60 cell lines (MGM) [9, 11] | GI50 [1] | GI50 [2] | GI50 [3] | GI50 [4] | GI50 [5] | GI50 [6] | GI50 [7] | GI50 [8] | also measured
+ (+, between 20 and 50% activities) | – | 274 to 276 °C (dec.) | COc1cc2c3c(n(CCCN4CCOCC4)c(=O)c2cc1OC(=O)c1cccnc1)-c1cc2c(cc1C3=O)OCO2 [Compound 19, 2-Methoxy-6-(3-morpholinopropyl)-5,12-dioxo-6,12-dihydro-5H-[1,3]dioxolo[4′,5′:5,6]indeno[1,2-c]isoquinolin-3-yl Nicotinate] | < 10 nM | < 10 nM | < 10 nM | < 10 nM | 15 nM | < 10 nM | < 10 nM | < 10 nM | 35 nM | – | – | – | – | – | – | – | – | –
0 | – | – | COc1cc2c3c(n(CCCN4CCOCC4)c(=O)c2cc1OC(C)=O)-c1cc2c(cc1C3=O)OCO2 [Compound 16, 2-Methoxy-6-(3-morpholinopropyl)-5,12-dioxo-6,12-dihydro-5H-[1,3]dioxolo[4′,5′:5,6]indeno[1,2-c]isoquinolin-3-yl Acetate] | – | – | – | – | – | – | – | – | 95 ± 45 nM | < 10 nM | < 10 nM | < 10 nM | < 10 nM | 269 nM | < 10 nM | < 10 nM | < 10 nM | –
